Structures can show the parent of a compound that is named as a salt.
Columns and labels:
TetR-HP1 = test: Orthogonal TetR-HP1 recruitment assay (BFP reporter); assay type: cell-based, mouse; settings: 5 μM, 48 hrs, with TetR-HP1 recruitment
Excerpt: The CiA:Oct4 recruitment system in mouse embryonic stem cells contains Gal4 and Zinc finger DNA binding arrays and a downstream nuclear eGFP gene in place of a single Oct4 allele as previously described (Hathaway et al., 2012). The CiA:Oct4 N118/N163 cell line containing viral integrations of N118 and N163 plasmids (N118-nLV EF-1α-Gal-FKBPx1-HA-PGK-Blast, N163-nLV EF-1α-HP1α (CS)-Frbx2(Frb+FrbWobb)-V5-PGK-Puro) was used for all experiments unless otherwise stated. The CiA:Oct4 N205 line containing the lentiviral construct N205 (N205-nLV EF-1α-ZFHD1-link-FKBP-HA <T2A> HP1αCS-Frbx2-V5-PGK-Blast) was used for shRNA experiments. CiA:Oct4 N118 was infected with the lentiviral construct N192 (N192-nLV Dual Promoter EF-1α-MCS-PGK-Puro HP1γ-(CS)-Frbx2(wobbmo)-V5) to yield the csHP1γ recruitment system CiA:Oct4 N118/N192. […]
TetR-HP1 cell lines were continuously grown with 1 μg/ml doxycycline to maintain an open chromatin state. […] Median BFP intensity was determined by FlowJo software analysis. […]

GLP = biological target: T1, GLP (Homo sapiens, UniProt Q9H9B1); test: In vitro activity against GLP; assay type: biochemical; settings: data not shown
T1 sequence (Q9H9B1 1-1298): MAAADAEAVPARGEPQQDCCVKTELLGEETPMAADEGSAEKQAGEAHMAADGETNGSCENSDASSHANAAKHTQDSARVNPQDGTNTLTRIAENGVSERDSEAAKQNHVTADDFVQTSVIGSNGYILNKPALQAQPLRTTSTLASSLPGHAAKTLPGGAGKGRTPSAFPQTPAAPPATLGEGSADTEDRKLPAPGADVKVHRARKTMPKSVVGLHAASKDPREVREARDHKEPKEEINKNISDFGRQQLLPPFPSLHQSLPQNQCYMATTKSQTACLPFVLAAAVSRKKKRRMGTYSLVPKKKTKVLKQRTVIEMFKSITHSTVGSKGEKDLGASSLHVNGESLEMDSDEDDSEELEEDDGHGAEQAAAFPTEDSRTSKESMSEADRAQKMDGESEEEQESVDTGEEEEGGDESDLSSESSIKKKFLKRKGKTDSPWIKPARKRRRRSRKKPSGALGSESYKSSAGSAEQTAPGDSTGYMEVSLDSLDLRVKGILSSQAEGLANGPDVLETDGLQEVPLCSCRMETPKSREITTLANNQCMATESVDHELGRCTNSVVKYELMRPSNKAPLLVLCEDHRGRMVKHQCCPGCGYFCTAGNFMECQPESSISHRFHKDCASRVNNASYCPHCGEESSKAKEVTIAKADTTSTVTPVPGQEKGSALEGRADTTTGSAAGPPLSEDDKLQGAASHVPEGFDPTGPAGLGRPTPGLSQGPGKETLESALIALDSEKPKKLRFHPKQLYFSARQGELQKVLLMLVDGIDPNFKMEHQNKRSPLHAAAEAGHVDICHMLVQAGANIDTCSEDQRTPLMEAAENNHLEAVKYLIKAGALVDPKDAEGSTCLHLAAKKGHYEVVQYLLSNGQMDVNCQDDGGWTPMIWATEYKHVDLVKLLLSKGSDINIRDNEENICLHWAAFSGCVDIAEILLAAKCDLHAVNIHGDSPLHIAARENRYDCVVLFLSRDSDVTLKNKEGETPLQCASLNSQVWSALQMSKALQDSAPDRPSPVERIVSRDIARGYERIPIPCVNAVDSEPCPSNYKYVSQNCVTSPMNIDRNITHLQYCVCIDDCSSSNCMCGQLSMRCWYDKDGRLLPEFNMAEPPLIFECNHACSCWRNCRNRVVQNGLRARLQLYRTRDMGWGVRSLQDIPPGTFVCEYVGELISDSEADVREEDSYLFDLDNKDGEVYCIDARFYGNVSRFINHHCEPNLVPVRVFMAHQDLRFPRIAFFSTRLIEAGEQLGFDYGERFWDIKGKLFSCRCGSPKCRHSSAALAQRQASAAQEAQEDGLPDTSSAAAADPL

COc1cc2nc(N3CCCC3)nc(N[C@H]3CCCNC3)c2cc1OC [compound 1, (S)-6,7-Dimethoxy-N-(Piperidin-3-yl)-2-(Pyrrolidin-1-yl)Quinazolin-4-Amine Trifluoroacetic Acid Salt] was tested. Which “Inhibition of HP1-mediated heterochromatin formation (median BFP expression)” value (TetR-HP1) did it give?
Its value is “significantly inhibit”.

And the “Activity against GLP in vitro” value (GLP)?
The value was “no detectable activity”.
